# Data as given in patent US20140349943A1, “TOPICAL FORMULATIONS OF CHEMERIN C15 PEPTIDES FOR THE TREATMENT OF DERMATOLOGICAL CONDITIONS” (priority 2011, published 2014).
# “And” between values parts separate entries of the source, which are not always exact repeats. Equal entries are not always repeated. Peptide text beside a SMILES is read from it.
# How the values were obtained:
# [1] = test system: IFNγ/LPS stimulated human macrophages; test: Cytokine secretion by IFNγ/LPS stimulated human macrophages (Luminex); assay type: cell-based; details: 16 hours post-stimulation
# [2] = Franz diffusion cell skin penetration, C15 ointment; assay type: in vitro ADME, human
# Protocol: The objective of the study was to determine whether human chemerin C15 peptide would diffuse through in vitro human skin maintained under flow-through conditions in Franz cells where the C15 peptide is administered as an ointment. Human chemerin C15 peptide was prepared as an ointment as described in Example 4. A 10% solution of the C15 ointment was prepare immediately prior to skin application. […] human skin obtained from abdominoplasty was maintained in tissue media and antibiotics and used within 3 days.
# A standard Franz diffusion cell (LGA, Berkeley, Calif.) was used under static conditions (n=3). Approximately 200 μl of the 10% ointment solution was transferred to the surface of the skin and distributed on the surface by spatula. A thin liner was then applied for light pressure to the skin surface for 5 min after which the diffusion cell was occluded and maintained for 24 hours. After this time, the ointment was recovered by scraping a spatula over the skin surface and transferring the retained material to a 50/50 water-chloroform solution. The epidermis and dermis were then separated by heat and the epidermis extracted with a 50/50 water-chloroform solution. The epidermis was then transferred to a second tube and homogenized in PBS containing 0.1% protease inhibitor. The dermis was minced and homogenized in PBS containing 0.1% protease inhibitor. The receptor fluid was recovered and concentrated under vacuum. Ointment without C15 was applied to skin and the skin sampled in the same manner as a control (n=2).
# C15 recovery from the dosing material, epidermis, and receptor fluid was determined by HPLC. C15 concentration in the dermis was determine by LC/MS. The skin surface and epidermis recoveries and epidermis homogenate samples were analyzed using the following reversed phase HPLC conditions:
# The dermis samples were analyzed using the following LC/MS/MS conditions: […]
# [3] = ointment, 24 hours, listed as C15
smiles,measurement,setting,value
C[C@H](N)C(=O)NCC(=O)N[C@@H](CCC(=O)O)C(=O)N[C@@H](CC(=O)O)C(=O)N1CCC[C@H]1C(=O)N[C@@H](Cc1c[nH]cn1)C(=O)N[C@@H](CO)C(=O)N[C@@H](Cc1ccccc1)C(=O)N[C@@H](Cc1ccc(O)cc1)C(=O)N[C@@H](Cc1ccccc1)C(=O)N1CCC[C@H]1C(=O)NCC(=O)N[C@@H](CCC(N)=O)C(=O)N[C@@H](Cc1ccccc1)C(=O)N[C@@H](C)C(=O)O [C15 (human)] (H-AGEDPHSFYFPGQFA-OH; N-terminus and C-terminus assumed),inhibition of human macrophage secretion of IL-1β,[1]; 1 pM,approximately 45%
same,inhibition of human macrophage secretion of RANTES,[1]; 1 pM,~65%
same,inhibition of human macrophage secretion of IL-12p40,[1],approximately 55%
same,[C15] in Receptor Fluid (5 mL),"[2]; Ointment, fresh human skin, after 24 hrs",<10 nM
same,recovery at 24 h,"[2]; female, human, ointment, 24 hours, mass balance, read-out: Total % recovery",104%
same,"epidermis and dermis combined, share of the applied dose",[2]; ointment,< 1%
same,"Receptor fluid, C15","[2]; ointment, 24 hours, HPLC LLQ 150 ng/ml",<LLQ
same,"Dermis homogenate, % of applied",[2]; [3],0.00% and 0.02% and 0.12%
same,"Epidermis, % of applied",[2]; [3],70.2% and 64.1% and 71.2%
same,"Epidermis, C15",[2]; [3],1.53 mg and 2.25 mg and 1.45 mg
same,"Skin Surface, % of applied",[2]; [3],33.6% and 33.3% and 40.6%
same,"Skin Surface, C15 recovered",[2]; [3],0.74 mg and 1.17 mg and 0.83 mg
same,Total % recovery,"[2]; ointment, 24 hours, mass balance, listed as C15",97.4% and 111.8%
